We go through 50 compounds from the RepoRT retention time repository (doi:10.1007/s00216-021-03828-0).

Settings in all cases: stereoisomer not certain
Data set [1] in a line: RP, Merck Supelco Ascentis Express C18, 100 × 2.1 mm, 2 µm, 40 °C, 0.2 mL/min, estimated dead time 1.1 min; A: water + 0.1% formic acid, pH 3; B: acetonitrile + 0.1% formic acid, pH 3; gradient (min/%B) 0/5 2/5 17/99.9 20/99.9.
Data set [2] is described as follows: RP, Merck Supelco Ascentis Express C18, 100 × 2.1 mm, 2 µm, 40 °C, 0.4 mL/min, estimated dead time 0.55 min; A: water + 0.1% formic acid, pH 3; B: acetonitrile + 0.1% formic acid, pH 3; gradient (min/%B) 0/5 2/5 17/99.9 20/99.9.
Data set [3] is described as follows: RP, Merck Supelco Ascentis Express C18, 100 × 2.1 mm, 2 µm, 39 °C, 0.3 mL/min, estimated dead time 0.73 min; A: water + 0.1% formic acid, pH 3; B: acetonitrile + 0.1% formic acid, pH 3; gradient (min/%B) 0/5 2/5 17/99.9 20/99.9.
The nature of data set [4]: RP, Merck Supelco Ascentis Express C18, 100 × 2.1 mm, 2 µm, 40 °C, 0.25 mL/min, estimated dead time 0.88 min; A: water + 0.1% formic acid, pH 3; B: acetonitrile + 0.1% formic acid, pH 3; gradient (min/%B) 0/5 2/5 17/99.9 20/99.9.
Data set [5] is described as follows: RP, Merck Supelco Ascentis Express C18, 100 × 2.1 mm, 2 µm, 40 °C, 0.2 mL/min, estimated dead time 1.1 min; A: water + 0.1% formic acid, pH 3; B: acetonitrile + 0.1% formic acid, pH 3; gradient (min/%B) 0/5 2/5 17/99.9 20/99.9. The source holds these as a separate data set.

`NC(Cc1ccc(O)cc1)C(=O)O` (stereo not drawn) [TYROSINE]: the LC retention time in data set [1] was 1.33 min.

For `NC(=O)CCCCC1CCSS1` (stereo not drawn) [LIPOAMIDE], the LC retention time in data set [1] was 7.65 min; in data set [2], 6.08 min; in data set [3] it was 6.65 min; in data set [4], 7.07 min.

`CNCCc1c[nH]c2ccccc12` [N-METHYLTRYPTAMINE]: the LC retention time was 4.88 min in data set [1], 3.32 min in data set [2], 3.89 min in data set [3] and 4.33 min in data set [4].

Turning to `NCCc1ccccc1` [PHENETHYLAMINE], the LC retention time in data set [2] was 0.963 min; in data set [4], 1.54 min.

For the compound `CCC=CCC1C(=O)CCC1CC(=O)OC` (stereo not drawn) [METHYL JASMONATE], the LC retention time was 11.2 min in data set [1], 9.27 min in data set [2], 9.96 min in data set [3] and 10.5 min in data set [4].

With `O=C(O)CCC(=O)C(=O)O` [OXOGLUTARATE], in data set [5], the LC retention time was 1.41 min.

On to `O=C(O)C=C(CC(=O)O)C(=O)O` [TRANS-ACONITATE], for which the LC retention time in data set [3] is 0.887 min.

Turning to `CCOC(=O)Cc1c[nH]c2ccccc12` [ETHYL 3-INDOLEACETATE], the LC retention time was 10.2 min in data set [1], 8.46 min in data set [2], 9.1 min in data set [3] and 9.59 min in data set [4].

As to `Nc1ncnc2c1ncn2C1OC(CO)C(O)C1O` (stereo not drawn) [ADENOSINE], the values for the LC retention time in data set [5] and in data set [1] were 1.35 min and 1.33 min, respectively.

Regarding `NC(Cc1c[nH]c2ccccc12)C(=O)O` (stereo not drawn) [TRYPTOPHAN], in data set [3], the LC retention time was 2.72 min.

Turning to `O=C(O)C(=O)Cc1ccccc1` [PHENYLPYRUVATE], in data set [3], the LC retention time is 4.98 min.

Take `O=C(O)C(O)C(O)C(O)C(O)COP(=O)(O)O` (stereo not drawn) [6-PHOSPHOGLUCONATE]: in data set [1], the LC retention time was 1.32 min.

As to `O=C1CCC(C(=O)O)N1` (stereo not drawn) [OXOPROLINE], the LC retention time in data set [5] is 1.32 min; in data set [1], 1.34 min.

As for `NCCc1cc(O)c(O)cc1O` [6-HYDROXYDOPAMINE], the LC retention time in data set [2] was 0.893 min.

Take `Cc1ccc(O)c(O)c1` [4-METHYLCATECHOL]: the LC retention time in data set [1] was 2.48 min; in data set [2], 1.24 min; in data set [3] it was 1.62 min; in data set [4], 1.97 min.

As for `O=C(O)C=CC(=O)O` [MALEATE], the LC retention time in data set [2] was 0.693 min.

With `CC(O)c1ccccc1` (stereo not drawn) [1-PHENYLETHANOL], the LC retention time in data set [1] was 8.6 min; in data set [2], 6.7 min; in data set [3] it was 7.38 min; in data set [4] it was 7.9 min.

Take `O=C(O)c1cccc(O)c1` [3-HYDROXYBENZOATE]: the LC retention time in data set [1] is 5.31 min; in data set [2] it was 3.62 min; in data set [3], 4.28 min; in data set [4], 4.72 min.

Take `NCCc1c[nH]c2ccccc12` [TRYPTAMINE]: the LC retention time in data set [1] is 4.56 min; in data set [2], 2.77 min; in data set [3], 3.5 min; in data set [4], 3.97 min.

Regarding `Cn1c(=O)c2c(ncn2C)n(C)c1=O` [CAFFEINE], the LC retention time in data set [1] was 4.96 min; in data set [2] it was 3.63 min; in data set [3], 4.12 min; in data set [4], 4.48 min.

`O=C(O)c1ccc2ccccc2n1` [2-QUINOLINECARBOXYLATE]: the LC retention time in data set [1] was 4.63 min; in data set [2], 2.93 min; in data set [3] it was 3.6 min; in data set [4] it was 4.05 min.

For the compound `CCCCCCCCCCCCCCCC(O)C(N)CO` (stereo not drawn) [SPHINGANINE], the LC retention time in data set [1] is 12.1 min; in data set [2], 10.6 min; in data set [3] it was 10.9 min; in data set [4], 11.5 min.

On to `CC(C)=CCCC(C)=CCCC(C)=CCCC=C(C)CCC=C(C)CCC=C(C)C` [SQUALENE], for which the LC retention time in data set [1] was 15.6 min; in data set [2], 13.6 min; in data set [3], 14 min; in data set [4], 14.8 min.

For `O=c1cccc(O)[nH]1` [2,6-DIHYDROXYPYRIDINE], the LC retention time in data set [1] was 1.53 min; in data set [2], 0.73 min; in data set [3], 0.947 min; in data set [4], 1.19 min.

For the compound `CC=CC=CC(=O)[O-]` [SORBATE], the LC retention time is 7.02 min in data set [1], 5.28 min in data set [2], 5.93 min in data set [3] and 6.4 min in data set [4].

For `CC1(O)CCOC(=O)C1` (stereo not drawn) [MEVALOLACTONE], the values for the LC retention time in data set [1], in data set [2] and in data set [4] were 1.84 min, 0.903 min and 1.46 min, respectively.

As for `O=C(O)CCCC(=O)O` [GLUTARATE], the LC retention time in data set [3] is 1.34 min.

With `O=C([O-])c1ccccn1` [PICOLINATE], the LC retention time in data set [5] was 1.37 min.

On to `CC1C(=O)Nc2ccccc21` (stereo not drawn) [3-METHYL-2-OXINDOLE], for which the LC retention time was 7.09 min in data set [1], 5.56 min in data set [2], 6.16 min in data set [3] and 6.5 min in data set [4].

As for `CCCCCCCCC=CCCCCCCCCCCCCCC(=O)[O-]` [NERVONATE], the LC retention time in data set [1] was 18.7 min; in data set [2], 17.4 min; in data set [3] it was 18.2 min; in data set [4], 18.7 min.

Take `Cn1cnc2c1c(=O)[nH]c(=O)n2C` [THEOBROMINE]: the LC retention time in data set [1] was 2.69 min; in data set [2] it was 1.4 min; in data set [3] it was 1.78 min; in data set [4] it was 2.12 min.

Turning to `O=C(O)C(O)COP(=O)(O)O` (stereo not drawn) [3-PHOSPHOGLYCERATE], the LC retention time in data set [1] is 1.39 min; in data set [2], 0.663 min.

Regarding `CCCCC(CC)COC(=O)c1ccccc1C(=O)OCC(CC)CCCC` (stereo not drawn) [BIS(2-ETHYLHEXYL)PHTHALATE], the LC retention time in data set [1] is 19 min; in data set [2], 17 min; in data set [3], 17.7 min; in data set [4] it was 18.3 min.

As for `NCCc1ccc(O)cc1` [TYRAMINE], the LC retention time in data set [1] was 1.4 min; in data set [2], 0.673 min; in data set [3], 0.883 min; in data set [4], 1.09 min.

As to `Nc1nc2nccnc2c(=O)[nH]1` [PTERIN], the LC retention time in data set [5] and in data set [1] was 1.33 min throughout.

On to `NCCc1c[nH]c2ccc(O)cc12` [SEROTONIN], for which the LC retention time was 1.77 min in data set [1], 0.857 min in data set [2], 1.12 min in data set [3] and 1.35 min in data set [4].

Turning to `Nc1nc2c(ncn2C2OC3COP(=O)(O)OC3C2O)c(=O)[nH]1` (stereo not drawn) [CYCLIC GMP], the LC retention time in data set [5] is 1.33 min; in data set [1] it was 1.34 min.

Regarding `NCC(O)c1ccccc1` (stereo not drawn) [PHENYLETHANOLAMINE], the LC retention time in data set [1] was 1.4 min; in data set [2], 0.673 min; in data set [3], 0.883 min; in data set [4] it was 1.09 min.

For `O=C(O)c1ccc[nH]1` [PYRROLE-2-CARBOXYLATE], the LC retention time in data set [1] was 1.54 min; in data set [2], 0.73 min; in data set [3] it was 3.07 min; in data set [4] it was 1.19 min.

For `Oc1ccc(O)cc1` [HYDROQUINONE], the LC retention time in data set [5] is 4.63 min.

Turning to `CC(=O)OCC(=O)C1CCC2C3CCC4=CC(=O)CCC4(C)C3CCC12C` (stereo not drawn) [DEOXYCORTICOSTERONE ACETATE], the LC retention time was 12.2 min in data set [1], 10.5 min in data set [2], 11.1 min in data set [3] and 11.6 min in data set [4].

With `CC12CCC3c4ccc(O)cc4CCC3C1CCC2O` (stereo not drawn) [ESTRADIOL-17ALPHA], the LC retention time was 10.3 min in data set [1], 8.64 min in data set [2], 9.22 min in data set [3] and 9.66 min in data set [4].

In the case of `COc1cc(CCN)ccc1O` [3-METHOXYTYRAMINE], the LC retention time in data set [1] is 1.78 min; in data set [2], 0.863 min; in data set [3] it was 1.13 min; in data set [4] it was 1.37 min.

As to `O=C([O-])c1c[nH]c(=O)[nH]c1=O` [URACIL 5-CARBOXYLATE], the LC retention time is 1.36 min in data set [5], 1.39 min in data set [1] and 1.07 min in data set [4].

Consider `Nc1cc(O)cc(C(=O)O)c1` [3-AMINO-5-HYDROXYBENZOATE], for which the LC retention time in data set [1] was 1.32 min.

For the compound `O=CCc1ccccc1` [PHENYLACETALDEHYDE], the LC retention time in data set [2] is 1.09 min.

For `c1ccc2ncccc2c1` [QUINOLINE], the LC retention time in data set [1] was 10.2 min; in data set [2], 2.49 min; in data set [4], 9 min.

In the case of `Nc1ncnc2c1ncn2C1OC(CO)C2OP(=O)(O)OC21` (stereo not drawn) [ADENOSINE 2',3'-CYCLIC PHOSPHATE], the LC retention time in data set [5] is 1.32 min; in data set [1], 1.34 min.

In the case of `NCC(O)c1ccc(O)c(O)c1` (stereo not drawn) [NORADRENALINE], in data set [2], the LC retention time was 1.07 min.

On to `Nc1ccccc1O` [2-AMINOPHENOL], for which the LC retention time in data set [1] is 1.34 min.
